Molecules are shown by their SMILES.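 Method: 48-hour compound exposure of cells in 96-well plates, five concentrations, linear interpolation of endpoints. GI50 = concentration required for 50% inhibition of growth. The concentration for full growth arrest is given as TGI.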 Bounds are passed on as bounds.

In PubChem BioAssay (NCI) one finds TGI and GI50 data, which are given here for twelve molecules.

Test systems include A549 NSCLC; ACHN renal; COLO 205 colon; EKVX NSCLC; HOP-92 NSCLC; HT29 colon; LOX IMVI melanoma; MALME-3M melanoma; SNB-75 CNS.
Test in all cases: NCI-60 cell line screen, 48 h

Consider `C=CCN=C1N=C(CC(=O)OCC)CS1`, for which the TGI with A549 NSCLC, with ACHN renal, with COLO 205 colon, in the experiment with EKVX NSCLC, in the experiment with HOP-92 NSCLC and in the experiment on HT29 colon was above 100 µM throughout. Besides, the TGI with LOX IMVI melanoma, in the experiment with MALME-3M melanoma and in the experiment on SNB-75 CNS was above 100 µM throughout.
For `Cc1cc(S(=O)(=O)NC#N)c(S/C(=N\Nc2ccc([N+](=O)[O-])cc2)c2ccccc2)cc1Cl`, the GI50 in the experiment on A549 NSCLC is 18.7 µM; in the experiment with ACHN renal it was 18 µM; with COLO 205 colon it was 44.7 µM; in the experiment with EKVX NSCLC, 17.2 µM; in the experiment on HOP-92 NSCLC, 10.7 µM; in the experiment with LOX IMVI melanoma, 15.4 µM. The GI50 with MALME-3M melanoma was 16.5 µM; in the experiment with SNB-75 CNS it was 20.4 µM. Also, the TGI in the experiment on A549 NSCLC was 40.8 µM; in the experiment with ACHN renal it was 41.5 µM; with COLO 205 colon, above 100 µM; in the experiment with EKVX NSCLC, 34.7 µM; in the experiment with HOP-92 NSCLC, 32.7 µM; in the experiment on LOX IMVI melanoma it was 28.8 µM. The TGI is 39.6 µM with MALME-3M melanoma and above 100 µM in the experiment with SNB-75 CNS.
For `c1cncc(C(Nc2cccc3cccnc23)Nc2cccc3cccnc23)c1`, the TGI with A549 NSCLC, with ACHN renal, in the experiment on COLO 205 colon, in the experiment with EKVX NSCLC, in the experiment on HOP-92 NSCLC and with HT29 colon was above 100 µM in each case. In addition, the TGI with LOX IMVI melanoma and in the experiment on SNB-75 CNS was above 100 µM in each case.
`CCS(=O)(=O)c1ccc(OC)c(Nc2nccc(N(C)c3ccc4c(C)[nH]nc4c3)n2)c1`: the GI50 with A549 NSCLC was 9.83 µM; in the experiment with ACHN renal it was 5.95 µM; in the experiment with COLO 205 colon it was 11 µM; with EKVX NSCLC it was 6.85 µM; in the experiment on HOP-92 NSCLC it was 0.622 µM; in the experiment on HT29 colon it was 5.66 µM. Also, the GI50 is 4.29 µM in the experiment on LOX IMVI melanoma, 8.48 µM in the experiment on MALME-3M melanoma and 2.94 µM in the experiment on SNB-75 CNS. The TGI in the experiment on A549 NSCLC is above 25 µM; with ACHN renal it was above 24.1 µM; in the experiment with COLO 205 colon, above 25 µM; in the experiment on EKVX NSCLC it was above 25 µM; with HOP-92 NSCLC, 3.64 µM; with HT29 colon it was 16.4 µM. Moreover, the values for the TGI in the experiment with LOX IMVI melanoma, in the experiment on MALME-3M melanoma and in the experiment on SNB-75 CNS were 12 µM, above 25 µM and 8.38 µM, respectively.
With `CNC1NC(=O)c2ccccc2N1Cc1ccc(F)cc1` (stereo not drawn), the TGI in the experiment with A549 NSCLC, in the experiment on ACHN renal, with COLO 205 colon, in the experiment with EKVX NSCLC, in the experiment on HOP-92 NSCLC and in the experiment on HT29 colon was above 100 µM throughout. In addition, the TGI with LOX IMVI melanoma, in the experiment on MALME-3M melanoma and with SNB-75 CNS was above 100 µM throughout.
Consider `Cc1cc(N/N=C/c2nc(-c3ccccc3)oc2C)c2cc(Cl)ccc2n1`, for which the GI50 was 1.85 µM in the experiment on A549 NSCLC; 1.74 µM in the experiment with ACHN renal; 1.8 µM in the experiment with COLO 205 colon; 1.99 µM with EKVX NSCLC; 1.43 µM in the experiment with HOP-92 NSCLC; 1.82 µM in the experiment with HT29 colon. Further, the GI50 was 1.94 µM with MALME-3M melanoma and 1.63 µM with SNB-75 CNS. For the same molecule, the TGI with A549 NSCLC was 3.58 µM; with ACHN renal, 3.14 µM; with COLO 205 colon it was 3.66 µM; in the experiment with EKVX NSCLC, 4.53 µM; in the experiment with HOP-92 NSCLC, 2.87 µM; in the experiment with HT29 colon, 3.59 µM. Besides, the TGI was determined as 3.51 µM in the experiment on MALME-3M melanoma and 3.34 µM with SNB-75 CNS.
With `O=C(c1ccc(NCN2C(=O)CCC2=O)cc1)c1ccc(NCN2C(=O)CCC2=O)cc1`, the TGI with A549 NSCLC, in the experiment with ACHN renal, with COLO 205 colon, with EKVX NSCLC, with HOP-92 NSCLC and in the experiment on HT29 colon was above 100 µM in each case. Also, the TGI with LOX IMVI melanoma and with MALME-3M melanoma was above 100 µM each time.
Consider `COc1ccc(C(=O)/C=C/c2cc(C(=O)c3cc(OC)c(OC)c(OC)c3)ccc2OC)cc1`, for which the GI50 is above 100 µM with A549 NSCLC, 3.19 µM in the experiment with ACHN renal, 5.81 µM in the experiment with HOP-92 NSCLC and 4.75 µM in the experiment with SNB-75 CNS. Further, the TGI in the experiment on A549 NSCLC is above 100 µM; in the experiment on ACHN renal, above 100 µM; with HOP-92 NSCLC, 58.9 µM; with SNB-75 CNS, 33.7 µM.
As to `CC(C)(C)C(=O)C(c1ccc(-c2cscn2)cc1)c1ccc(-c2cscn2)cc1`, the TGI in the experiment on A549 NSCLC was above 100 µM; in the experiment on ACHN renal, above 100 µM; in the experiment on COLO 205 colon it was above 100 µM; in the experiment with EKVX NSCLC it was above 100 µM; with HOP-92 NSCLC, 30 µM; in the experiment on HT29 colon it was above 100 µM. In addition, the TGI in the experiment on LOX IMVI melanoma is above 100 µM; with MALME-3M melanoma it was above 100 µM; with SNB-75 CNS it was 25.6 µM.
As for `C#CC[C@H](c1nc2cc(Cl)ccc2c(=O)n1Nc1ccccc1)N(CCCN)C(=O)c1cccc(Cl)c1F`, the GI50 was 0.255 µM in the experiment on A549 NSCLC; 1.73 µM in the experiment with ACHN renal; 0.0951 µM in the experiment with COLO 205 colon; 0.179 µM in the experiment with HOP-92 NSCLC; 0.337 µM in the experiment with HT29 colon; 0.325 µM in the experiment on LOX IMVI melanoma. In addition, the results for the GI50 in the experiment on MALME-3M melanoma and in the experiment with SNB-75 CNS were 1.05 µM and 0.251 µM, respectively. Also, the TGI was 1.87 µM with A549 NSCLC; 3.89 µM in the experiment with ACHN renal; 0.868 µM in the experiment with COLO 205 colon; 1.65 µM in the experiment on HOP-92 NSCLC; 1.32 µM with HT29 colon; 1.84 µM in the experiment with LOX IMVI melanoma. Further, the TGI in the experiment with MALME-3M melanoma was found to be 2.45 µM; with SNB-75 CNS it was 1.53 µM.
For the molecule `CCOC(=O)NC(=O)c1cn(CCCOC(=O)CCCCCCCCC(=O)OCCCn2cc(C(=O)NC(=O)OCC)c(=O)[nH]c2=O)c(=O)[nH]c1=O`, the TGI was above 100 µM in the experiment on A549 NSCLC; 42.1 µM in the experiment on ACHN renal; 64.4 µM in the experiment on COLO 205 colon; above 100 µM with EKVX NSCLC; above 100 µM in the experiment with HT29 colon; above 100 µM in the experiment with LOX IMVI melanoma. The same molecule showed a TGI with SNB-75 CNS above 100 µM.
`CN(C)c1ccc(/C=C2\N=C(c3ccc(N)cc3)OC2=O)cc1`: the TGI in the experiment on A549 NSCLC, in the experiment on ACHN renal, with COLO 205 colon, in the experiment with EKVX NSCLC, in the experiment with HOP-92 NSCLC and in the experiment with HT29 colon was above 100 µM each time. For the same molecule, the TGI with LOX IMVI melanoma, in the experiment on MALME-3M melanoma and in the experiment on SNB-75 CNS was above 100 µM throughout.
